Results reported in patent US20210130473A1, “TGFßR1 INHIBITOR-ASGR ANTIBODY CONJUGATES AND USES THEREOF” (Silverback Therapeutics, Inc., priority 2019, published 2021).

Legend:
ALK5 = target: T1, ALK5 (Homo sapiens, UniProt P36897); test: ALK5 enzyme inhibition assay (casein substrate, 10 uM ATP, 33P-ATP, filter-binding; Reaction Biology Corp); assay type: biochemical
T1 construct: purchased Reaction Biology Corp (Malvern, Pa.)
T1 sequence (P36897 34-503): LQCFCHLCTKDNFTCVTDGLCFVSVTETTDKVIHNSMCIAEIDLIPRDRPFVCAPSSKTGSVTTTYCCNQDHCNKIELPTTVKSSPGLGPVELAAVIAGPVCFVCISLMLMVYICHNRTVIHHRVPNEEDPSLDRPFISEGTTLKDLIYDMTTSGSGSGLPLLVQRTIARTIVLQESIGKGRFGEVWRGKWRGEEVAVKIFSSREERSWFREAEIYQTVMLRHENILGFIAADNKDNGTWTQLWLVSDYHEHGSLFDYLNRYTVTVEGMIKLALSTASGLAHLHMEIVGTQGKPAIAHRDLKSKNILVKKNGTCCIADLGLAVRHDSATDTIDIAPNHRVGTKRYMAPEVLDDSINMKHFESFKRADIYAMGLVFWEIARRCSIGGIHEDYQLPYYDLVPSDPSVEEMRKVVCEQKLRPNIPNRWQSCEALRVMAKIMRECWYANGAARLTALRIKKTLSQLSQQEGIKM
Procedure: ALK5 enzyme inhibition assays were performed by Reaction Biology Corp (Malvern, Pa.). 1 mg/mL of peptide substrate (casein) and 10 uM ATP were prepared in a mixture of fresh reaction buffer. The kinase was delivered into the substrate solution which was gently mixed. Compounds in 100% DMSO were added to the kinase reaction mixture by Acoustic technology (Echo550; nanoliter range) and the mixture was incubated for 20 min at room temperature. ^33P-ATP (Specific activity 10 uCi/uL) was added into the reaction mixture to initiate the reaction and the reaction mixture was incubated for 2 hours at room temperature. Radioactivity was detected by filter-binding method and kinase activity data were expressed as the percent remaining kinase activity in test samples compared to vehicle (dimethyl sulfoxide) reactions. IC50 values and curve fits were obtained using Prism (GraphPad Software).

[1] = tested on: TGFβ/SMAD Signaling Pathway SBE reporter cell line; test: TGFb reporter assay in HEK293 SBE-LUC reporter cells (luciferase); assay type: cell-based; conditions: Homo sapiens, key of the table says IC50, read-out: EC50 (the source's name)
Procedure: TGFβ/SMAD Signaling Pathway SBE reporter cell line was obtained from BPS Bioscience. Cells are passed, expanded, and stored in liquid nitrogen as per the supplier's instructions with the exception that growth media is changed to DMEM-C with Geneticin (DMEM supplemented with 10% fetal bovine serum, 1×NEAA, 1 mM Pyruvate, 2 mM glutamine, 50 μg/mL penicillin, 50 U/mL streptomycin and 400 μg/mL of Geneticin). The assay media is MEM supplemented with 0.5% fetal bovine serum, 1×NEAA, 1 mM Pyruvate, 50 μg/mL penicillin and 50 U/mL streptomycin.
Compounds are assayed to measure their activity as ALK5 inhibitors.
The HEK293 SBE-LUC reporter cells from Example 15 were grown in DMEM-C with Geneticin (DMEM supplemented with […], 1×NEAA, 1 mM Pyruvate, 2 mM glutamine, 50 μg/mL penicillin, 50 U/mL streptomycin and 400 ug/mL of Geneticin). The assay media was MEM supplemented with 0.5% fetal bovine serum, 1×NEAA, 1 mM Pyruvate, 50 μg/mL penicillin and 50 U/mL streptomycin.
The HEK293 SBE-LUC reporter cells were harvested from the tissue culture flasks by incubation in small quantity of Versene at room temperature for three to five minutes after the media in the flask is removed and cells rinsed with PBS. Cells were counted and diluted in the assay media at ˜0.8×10^6 cells/mL then 50 uL/well were added to 96-well assay plate. Test samples (at desired concentrations diluted in assay media) were added to assay plate containing the 50 uL/well of cells (or media only), 50 uL per well, and incubated for 5-6 hours at 37° C. in a 5% CO2 humidified incubator. After that time, 15 uL of TGFb diluted to 12.5 ng/mL in the assay media was added to the plate. Controls included TGFb titration (from 25 to 0 ng/mL) without inhibitors, and media only (without cells, inhibitor or TGFb). Plates were incubated at 37° C. in a 5% CO2 humidified incubator for 18h. Luciferase substrate solution was subsequently added at 75 uL per well, incubated in dark with shaking at room temperature for 10 min, and luminescence was measured using a luminometer.

| Compound | IC50 (ALK5; Table 12) [µM] | IC50 [1] [µM] | IC50 (ALK5; Table 11) [µM] |
| --- | --- | --- | --- |
| Cc1cccc(-c2nc(C3CN(C(=O)OC(C)(C)C)C3)[nH]c2-c2ccc3ncnn3c2)n1 [Compound 1.52] | 1 to 10 | 0.1 to 1 |  |
| Cc1cccc(-c2nc(CNCc3c(Cl)cccc3Cl)[nH]c2-c2ccc3ncnn3c2)n1 [Compound 6] |  | 0.0001 to 0.01 | 0.0001 to 0.05 |
| COc1ccccc1CCNCc1nc(-c2cccc(C)n2)c(-c2ccc3ncccc3n2)[nH]1 [Compound 84] |  | 0.0001 to 0.01 | 0.1 to 1 |
| Cc1cccc(-c2nc(CNCc3ccccc3-c3ccccc3)[nH]c2-c2ccc3c(c2)OCO3)n1 [Compound 71] |  | 0.1 to 1 | 0.0001 to 0.05 |
| Cc1cccc(-c2nc(CNC34CC(C3)C4)[nH]c2-c2ccc3ncnn3c2)n1 [Compound 1.9] | 1 to 10 | 0.01 to 0.1 |  |
| Cc1cccc(-c2nc(CNCc3ccccc3Cl)[nH]c2-c2ccn3ncnc3c2)n1 [Compound 10] |  | 0.0001 to 0.01 | 0.0001 to 0.05 |
| Cc1cccc(-c2nc(CNCCN(C)c3ccccc3)[nH]c2-c2ccc3nccnc3c2)n1 [Compound 88] |  | 0.0001 to 0.01 | 0.0001 to 0.05 |
| CCc1ccccc1CNCc1nc(-c2cccc(C)n2)c(-c2ccc3ncnn3c2)[nH]1 [Compound 22] |  | 0.0001 to 0.01 | 0.0001 to 0.05 |
| Cc1cccc(-c2nc(CNCc3ccccc3Oc3ccccc3)[nH]c2-c2ccc3ncnn3c2)n1 [Compound 53] |  | 0.0001 to 0.01 | 0.0001 to 0.05 |
| COc1cccc(CNCc2nc(-c3cccc(C)n3)c(-c3ccc4ncnn4c3)[nH]2)c1C [Compound 46] |  | 0.0001 to 0.01 | 0.05 to 0.1 |
| COc1cccc(CNCc2nc(-c3cccc(C)n3)c(-c3ccc4ncnn4c3)[nH]2)c1 [Compound 7] |  | 0.0001 to 0.01 | 0.1 to 1 |
| Cc1cccc(-c2nc(CNC(c3ccccc3)c3ccccc3)[nH]c2-c2ccc3ncnn3c2)n1 [Compound 13] |  | 0.0001 to 0.01 | 0.05 to 0.1 |
| Cc1cccc(-c2nc(CNCc3ccccc3-c3ccccc3)[nH]c2-c2ccnc3ccccc23)n1 [Compound 69] |  | 0.1 to 1 | 0.1 to 1 |
| COC(=O)[C@H](NCc1nc(-c2cccc(C)n2)c(-c2ccc3ncnn3c2)[nH]1)c1ccccc1 [Compound 15] |  | 0.1 to 1 | 0.05 to 0.1 |
| Cc1cccc(-c2nc(CNCc3ccccc3-c3ccncc3)[nH]c2-c2ccc3ncnn3c2)n1 [Compound 42] |  | 0.01 to 0.1 | 0.1 to 1 |
| Cc1cccc(-c2nc(CNCc3ccccc3C3CCCC3)[nH]c2-c2ccc3ncnn3c2)n1 [Compound 44] |  | 0.01 to 0.1 | 0.1 to 1 |
| Cc1cccc(-c2nc(CN[C@H]3CCCC[C@H]3F)[nH]c2-c2ccn3ncnc3c2)n1 [Compound 1.33] | 0.1 to 1 | 0.1 to 1 |  |
| Cc1cccc(-c2nc(CNCc3ccccc3-c3ccc(F)c(F)c3)[nH]c2-c2ccc3ncnn3c2)n1 [Compound 36] |  | 0.01 to 0.1 | 0.05 to 0.1 |
| Cc1cccc(-c2nc(CNCCc3ccccc3F)[nH]c2-c2ccc3ncnn3c2)n1 [Compound 59] |  | 0.0001 to 0.01 | 0.0001 to 0.05 |
| Cc1cccc(-c2nc(CNCc3ccccc3C)[nH]c2-c2ccc3nccnc3c2)n1 [Compound 86] |  | 0.0001 to 0.01 | 0.0001 to 0.05 |
| Cc1cccc(-c2nc(CNCc3ccccc3C(O)C(F)(F)F)[nH]c2-c2ccc3ncnn3c2)n1 (stereo not shown) [Compound 28] |  | 0.0001 to 0.01 | 0.0001 to 0.05 |
| CC(=O)NC1Cc2cccc(NCc3nc(-c4cccc(C)n4)c(-c4ccc5ncnn5c4)[nH]3)c2C1 (stereo not shown) [Compound 1.23] | 0.01 to 0.1 | 0.1 to 1 |  |
| Cc1cccc(-c2nc(CN[C@H]3CCCC[C@@H]3F)[nH]c2-c2ccn3ncnc3c2)n1 [Compound 1.32] | 0.01 to 0.1 | 0.1 to 1 |  |
| Cc1cccc(-c2nc(CNCc3ccccc3-c3ccccc3F)[nH]c2-c2ccc3ncnn3c2)n1 [Compound 38] |  | 0.0001 to 0.01 | 0.0001 to 0.05 |
| Cc1cccc(-c2nc(CNCc3ccccc3-c3cccc(CNC(=O)OC(C)(C)C)c3)[nH]c2-c2ccc3ncnn3c2)n1 [Compound 30] |  | 0.1 to 1 | 0.1 to 1 |

| Compound | IC50 (ALK5; Table 12) [µM] | IC50 [1] [µM] | IC50 (ALK5; Table 11) [µM] |
| --- | --- | --- | --- |
| Cc1cccc(-c2nc(CNCc3ccccc3)[nH]c2-c2ccc3ncccc3c2)n1 [Compound 90] |  | 0.0001 to 0.01 | 0.05 to 0.1 |
| COc1ccc(CNCc2nc(-c3cccc(C)n3)c(-c3ccc4ncnn4c3)[nH]2)cc1 [Compound 8] |  | 0.1 to 1 | 1 to 10 |
| Cc1cccc(-c2nc(CNc3cccc4c3CCC4N)[nH]c2-c2ccc3ncnn3c2)n1 (stereo not shown) [Compound 1.6] | 0.1 to 1 | 0.1 to 1 |  |
| Cc1cccc(-c2nc(CNc3cccc4c3CC(N)C4)[nH]c2-c2ccc3ncnn3c2)n1 (stereo not shown) [Compound 1.22] | 1 to 10 | 0.1 to 1 |  |
| COC(=O)[C@@H](NCc1nc(-c2cccc(C)n2)c(-c2ccc3ncnn3c2)[nH]1)c1ccccc1 [Compound 16] |  | 0.1 to 1 | 0.0001 to 0.05 |
| Cc1cccc(-c2nc(CNCc3ccccc3-c3ccc(CNC(=O)OC(C)(C)C)cc3)[nH]c2-c2ccc3ncnn3c2)n1 [Compound 31] |  | 0.1 to 1 | 0.1 to 1 |
| Cc1cccc(-c2nc(CNCc3ccccc3-c3ccccc3)[nH]c2-c2ccc3ncccc3n2)n1 [Compound 68] |  | 0.01 to 0.1 | 0.0001 to 0.05 |
| COc1ccc(OC)c(CNCc2nc(-c3cccc(C)n3)c(-c3ccc4ncnn4c3)[nH]2)c1 [Compound 9] |  | 0.01 to 0.1 | 0.1 to 1 |
| Cc1cccc(-c2nc(CN[C@@H](CO)c3ccccc3)[nH]c2-c2ccc3ncnn3c2)n1 [Compound 14] |  | 0.01 to 0.1 | 0.05 to 0.1 |
| Cc1cccc(-c2nc(CNCc3ccccc3F)[nH]c2-c2ccc3ncnn3c2)n1 [Compound 18] |  | 0.0001 to 0.01 | 0.0001 to 0.05 |
| Cc1cccc(-c2nc(CNCCc3ccnc4ccccc34)[nH]c2-c2ccc3ncnn3c2)n1 [Compound 1.60] |  | 0.01 to 0.1 |  |
| Cc1cccc(-c2nc(CNc3ccc4c(c3)CNCC4)[nH]c2-c2ccc3ncnn3c2)n1 [Compound 1.1] |  | 0.1 to 1 |  |
| Cc1cccc(-c2nc(CNCCc3c(F)cccc3F)[nH]c2-c2ccc3ncccc3c2)n1 [Compound 89] |  |  | 0.0001 to 0.05 |
| Cc1cccc(-c2nc(CNC3Cc4ccccc4C3)[nH]c2-c2ccc3ncnn3c2)n1 [Compound 1.27] |  | 0.01 to 0.1 |  |
| Cc1cccc(-c2nc(CNC3CC3)[nH]c2-c2ccc3ncnn3c2)n1 [Compound 1.7] |  | 0.1 to 1 |  |
| Cc1cccc(-c2nc(CNCc3ccccc3)[nH]c2-c2ccnc3ccccc23)n1 [Compound 74] |  | 0.1 to 1 |  |
| Cc1cccc(-c2nc(CNCc3cccc4ccccc34)[nH]c2-c2ccc3ncnn3c2)n1 [Compound 1.57] |  | 0.01 to 0.1 |  |
| Cc1cccc(-c2nc(CNC3CCOCC3)[nH]c2-c2ccc3ncnn3c2)n1 [Compound 1.14] |  | 0.01 to 0.1 |  |
| Cc1cccc(-c2nc(CNCc3ccc4c(c3)OCO4)[nH]c2-c2ccc3ncnn3c2)n1 [Compound 1.41] |  | 0.1 to 1 |  |
| Cc1cccc(-c2nc(CNc3ccc4c(c3)CCNC4)[nH]c2-c2ccc3ncnn3c2)n1 [Compound 1.2] |  | 0.1 to 1 |  |
| Cc1cccc(-c2nc(CNCc3cccc(Oc4ccccc4)c3)[nH]c2-c2ccc3ncnn3c2)n1 [Compound 56] |  | 0.01 to 0.1 |  |
| Cc1cccc(-c2nc(CNC3CCC3)[nH]c2-c2ccc3ncnn3c2)n1 [Compound 1.10] |  | 0.1 to 1 |  |
| Cc1cccc(-c2nc(CNC3CCCC3)[nH]c2-c2ccc3ncnn3c2)n1 [Compound 1.11] |  | 0.01 to 0.1 |  |
| Cc1cccc(-c2nc(CNCCc3c(F)cccc3F)[nH]c2-c2ccc3ncccc3n2)n1 [Compound 78] |  | 0.0001 to 0.01 |  |
| Cc1cccc(-c2nc(CNCCc3c(F)cccc3F)[nH]c2-c2ccncc2)n1 [Compound 80] |  | 0.1 to 1 |  |
